# Experimental data taken from ChEMBL document CHEMBL5303573, “Mapping human microbiome drug metabolism by gut bacteria and their genes” (Nature, 2019).
# How the values were obtained:
# [1] = akkermansia muciniphila, 12 h, 2 µM
# Description: The drug is tested on Akkermansia muciniphila strain: ATCC BAA-835 for biotransformation. The drug concentrations were measured before and after a 12-h incubation by liquid-chromatography-coupled mass spectrometry (LC–MS)
# [2] = The drug is tested on Bacteroides vulgatus strain: ATCC8482 for biotransformation. The drug concentrations were measured before and after a 12-h incubation by liquid-chromatography-coupled mass spectrometry (LC–MS); details: phocaeicola vulgatus, 2 µM
# [3] = bacteroides stercoris, 12 h, 2 µM
# Description: The drug is tested on Bacteroides stercoris strain: ATCC43183 for biotransformation. The drug concentrations were measured before and after a 12-h incubation by liquid-chromatography-coupled mass spectrometry (LC–MS)
# [4] = The drug is tested on Ruminococcus lactaris strain: ATCC29176 for biotransformation. The drug concentrations were measured before and after a 12-h incubation by liquid-chromatography-coupled mass spectrometry (LC–MS); details: 2 µM
# [5] = The drug is tested on Clostridium scindens strain: ATCC35704 for biotransformation. The drug concentrations were measured before and after a 12-h incubation by liquid-chromatography-coupled mass spectrometry (LC–MS); details: 2 µM
# [6] = The drug is tested on Anaerococcus hydrogenalis strain: DSM7454 for biotransformation. The drug concentrations were measured before and after a 12-h incubation by liquid-chromatography-coupled mass spectrometry (LC–MS); details: 2 µM
# [7] = The drug is tested on Providencia rettgeri strain: DSM1131 for biotransformation. The drug concentrations were measured before and after a 12-h incubation by liquid-chromatography-coupled mass spectrometry (LC–MS); format: ADME; set-up: dose 2 uM, timepoint 0 vs 12 hours; details: 2 µM
# [8] = The drug is tested on Bacteroides cellulosilyticus strain: DSM14838 for biotransformation. The drug concentrations were measured before and after a 12-h incubation by liquid-chromatography-coupled mass spectrometry (LC–MS); details: 2 µM
# [9] = parabacteroides distasonis, 12 h, 2 µM
# Description: The drug is tested on Parabacteroides distasonis strain: ATCC8503 for biotransformation. The drug concentrations were measured before and after a 12-h incubation by liquid-chromatography-coupled mass spectrometry (LC–MS)
# [10] = The drug is tested on Bacteroides fragilis strain: HMW610 for biotransformation. The drug concentrations were measured before and after a 12-h incubation by liquid-chromatography-coupled mass spectrometry (LC–MS); details: 2 µM
# [11] = anaerostipes sp., 12 h, 2 µM
# Description: The drug is tested on Anaerostipes sp. strain: fecal isolate for biotransformation. The drug concentrations were measured before and after a 12-h incubation by liquid-chromatography-coupled mass spectrometry (LC–MS)
# [12] = roseburia intestinalis, 12 h, 2 µM
# Description: The drug is tested on Roseburia intestinalis strain: L1-82 for biotransformation. The drug concentrations were measured before and after a 12-h incubation by liquid-chromatography-coupled mass spectrometry (LC–MS)
# [13] = The drug is tested on Blautia luti strain: DSM14534 for biotransformation. The drug concentrations were measured before and after a 12-h incubation by liquid-chromatography-coupled mass spectrometry (LC–MS); format: ADME; set-up: dose 2 uM, timepoint 0 vs 12 hours; details: 2 µM
# [14] = bacteroides thetaiotaomicron, 12 h, 2 µM
# Description: The drug is tested on Bacteroides thetaiotaomicron strain: VPI-5482 for biotransformation. The drug concentrations were measured before and after a 12-h incubation by liquid-chromatography-coupled mass spectrometry (LC–MS)
# [15] = bacteroides eggerthii, 12 h, 2 µM
# Description: The drug is tested on Bacteroides eggerthii strain: DSM20697 for biotransformation. The drug concentrations were measured before and after a 12-h incubation by liquid-chromatography-coupled mass spectrometry (LC–MS)
# [16] = The drug is tested on Clostridium sp. strain: fecal isolate for biotransformation. The drug concentrations were measured before and after a 12-h incubation by liquid-chromatography-coupled mass spectrometry (LC–MS); details: 2 µM
# [17] = parabacteroides johnsonii, 12 h, 2 µM
# Description: The drug is tested on Parabacteroides johnsonii strain: DSM18315 for biotransformation. The drug concentrations were measured before and after a 12-h incubation by liquid-chromatography-coupled mass spectrometry (LC–MS)
# [18] = The drug is tested on Bacteroides fragilis strain: HMW615 for biotransformation. The drug concentrations were measured before and after a 12-h incubation by liquid-chromatography-coupled mass spectrometry (LC–MS); details: 2 µM
# [19] = bacteroides fragilis, 12 h, 2 µM
# Description: The drug is tested on Bacteroides fragilis strain: DS-208 for biotransformation. The drug concentrations were measured before and after a 12-h incubation by liquid-chromatography-coupled mass spectrometry (LC–MS)
Structure (SMILES),Bacterial Biotransformation [1],Bacterial Biotransformation [2],Bacterial Biotransformation [3],Bacterial Biotransformation [4],Bacterial Biotransformation [5],Bacterial Biotransformation [6],Bacterial Biotransformation [7],Bacterial Biotransformation [8],Bacterial Biotransformation [9],Bacterial Biotransformation [10],Bacterial Biotransformation [11],Bacterial Biotransformation [12],Bacterial Biotransformation [13],Bacterial Biotransformation [14],Bacterial Biotransformation [15],Bacterial Biotransformation [16],Bacterial Biotransformation [17],Bacterial Biotransformation [18],Bacterial Biotransformation [19]
CCCc1nc2c(C)cc(-c3nc4ccccc4n3C)cc2n1Cc1ccc(-c2ccccc2C(=O)O)cc1,Compound NOT metabolized,Compound metabolized,Compound metabolized,Compound NOT metabolized,Compound NOT metabolized,Compound NOT metabolized,Compound NOT metabolized,Compound metabolized,Compound metabolized,Compound metabolized,Compound NOT metabolized,Compound NOT metabolized,,,,,,,
CC(C)(C)N.CCC[C@H](N[C@@H](C)C(=O)N1[C@H](C(=O)O)C[C@@H]2CCCC[C@@H]21)C(=O)OCC [PERINDOPRIL ERBUMINE],Compound NOT metabolized,Compound NOT metabolized,,Compound NOT metabolized,Compound NOT metabolized,Compound NOT metabolized,Compound NOT metabolized,Compound NOT metabolized,Compound NOT metabolized,,Compound NOT metabolized,Compound NOT metabolized,Compound NOT metabolized,Compound NOT metabolized,Compound NOT metabolized,Compound NOT metabolized,,,
CC(CN1c2ccccc2Sc2ccccc21)N(C)C (stereo not drawn) [PROMETHAZINE],Compound NOT metabolized,Compound NOT metabolized,Compound NOT metabolized,,Compound NOT metabolized,Compound NOT metabolized,,Compound NOT metabolized,,Compound NOT metabolized,Compound NOT metabolized,,Compound NOT metabolized,Compound NOT metabolized,Compound NOT metabolized,,Compound NOT metabolized,Compound NOT metabolized,Compound NOT metabolized
CN(CCOc1ccc(CC2SC(=O)NC2=O)cc1)c1ccccn1.O=C(O)/C=C\C(=O)O (stereo not drawn) [ROSIGLITAZONE MALEATE],Compound NOT metabolized,Compound NOT metabolized,Compound NOT metabolized,Compound NOT metabolized,Compound NOT metabolized,Compound NOT metabolized,Compound NOT metabolized,Compound NOT metabolized,Compound NOT metabolized,,Compound NOT metabolized,Compound NOT metabolized,Compound NOT metabolized,Compound NOT metabolized,Compound NOT metabolized,Compound NOT metabolized,Compound NOT metabolized,,Compound NOT metabolized
COc1ccc(CN2CCNCC2)c(OC)c1OC.Cl.Cl [TRIMETAZIDINE DIHYDROCHLORIDE],Compound NOT metabolized,Compound metabolized,Compound metabolized,Compound NOT metabolized,Compound NOT metabolized,Compound NOT metabolized,Compound metabolized,Compound metabolized,Compound metabolized,,Compound NOT metabolized,Compound NOT metabolized,Compound NOT metabolized,Compound metabolized,Compound NOT metabolized,Compound NOT metabolized,Compound metabolized,,
